Measurements reported in patent US9040252B2, “Method for increasing and regulating light emission from a chemiluminescent reaction” (Cyanagen S.R.L., priority 2010, dated 2015).

Molecular target: T1, horseradish peroxidase (HRP-type VIA) (Armoracia rusticana, UniProt P00433)
T1 construct: purchased Sigma-Aldrich
T1 sequence (P00433 31-338 limits assumed): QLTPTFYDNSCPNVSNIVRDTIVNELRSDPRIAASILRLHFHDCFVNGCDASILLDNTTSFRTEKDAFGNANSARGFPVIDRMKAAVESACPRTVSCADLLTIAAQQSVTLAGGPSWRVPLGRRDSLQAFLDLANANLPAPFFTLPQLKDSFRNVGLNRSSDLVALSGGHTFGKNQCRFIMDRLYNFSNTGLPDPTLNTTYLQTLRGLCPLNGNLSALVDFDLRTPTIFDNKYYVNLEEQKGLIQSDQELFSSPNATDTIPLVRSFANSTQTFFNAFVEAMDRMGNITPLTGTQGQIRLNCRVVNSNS
Experiment: Dependence of the enhanced luminol-peroxide-peroxidase chemiluminescent reaction on secondary enhancer concentration
Format: biochemical
Details: pH 9.00 Tris buffer; initial light output, FIG. 4
Method: All measurements reported in Examples were carried out with a Varian Eclipse spectrofluorimeter and the following settings: bio/chemiluminescence mode; emission wavelength: 425 nm; emission slit: 20 nm; Photomultiplier Detection Voltage: medium.
A series of chemiluminescent substrates in 0.15 M, pH 9.00+−0.05 Tris buffer, is prepared, with the following compositions:
[luminol sodium salt]=5 mM
[sodium 3-(phenothiazin-10-yl)propane-1-sulfonate]=3 mM secondary enhancer=MORP, imidazole, 1-methylimidazole, 1,2,3-triazole, 1,2,4-triazole at the following concentrations:
A series of disposable polymethylmethacrylate cuvettes is prepared, each containing 2 mL of substrate solution. To each cuvette are added 10 μL of a 2 μg/mL horseradish peroxidase solution (HRP-type VIA) solution and simultaneously a 30 seconds countdown is started. The cuvette is closed with a square piece of parafilm and vortexed for 3 seconds. The cuvette is then inserted into the spectrofluorimeter. At the end of the 30 seconds countdown measurement of the luminescent signal is initiated and recorded for a 900 sec period. In all cases the signal reaches a plateau level within 30 seconds after the addition of the peroxidase, and then begins to slowly decrease. Initial, plateau levels are plotted vs. secondary enhancer concentration, FIG. 4. As it can be seen, the effect of MORP on signal intensity is quite strong even at very low concentrations. Signal output reaches a sharp maximum at about 1.5 mM of MORP and then falls abruptly. In contrast, N-azoles exert a much more gradual effect on signal intensity, reaching a plateau at much higher concentration levels. Thus, they afford a considerable degree of regulation of the chemiluminescent light output, which cannot be obtained with dialkylaminopyridine secondary enhancers such as MORP.

SMILES | behaviour of enhancement effect with increasing secondary enhancer concentration
c1c[nH]nn1 [1,2,3-triazole] | tend to reach a plateau
c1nc[nH]n1 [1,2,4-triazole] | tend to reach a plateau
Cn1ccnc1 [1-methylimidazole] | tend to reach a plateau
c1cc(N2CCOCC2)ccn1 [MORP, 4-morpholinopyridine, reference compound] | sharply decreases its enhancement effect with a further increase in concentration
c1c[nH]cn1 [imidazole] | begin to slowly decrease their action at very high concentration
